Patent US11684672B2, “Combinations of copanlisib with anti-PD-1 antibody” (BAYER PHARMA AKTIENGESELLSCHAFT, priority 2017, dated 2023)
Where a name gives a salt, the structure may show the parent alone.

Experiments:
[1] = tested on: A20 diffuse large B cell lymphoma; assay: Anti-tumor efficacy in A20 DLBCL syngeneic mouse model; assay type: in vivo; settings: monotherapy; Cpd A 14 mg/kg i.v., Cpd B 200 μg/mouse i.v.; female BALB/c mice; vs vehicle control group
Procedure: (§1) A20 diffuse large B cell lymphoma and CT26 colorectal cancer cells were maintained in vitro in cell cultural medium supplemented with serum (according to the instructions for each corresponding cell lines) at 37° C. in an atmosphere of 5% CO2 in air. The tumor cells were routinely subcultured twice weekly. The cells in an exponential growth phase were harvested and counted for tumor inoculation. To investigate anti-tumor efficacy and mechanisms of action in vivo, each mouse was inoculated subcutaneously at the right lower flank region with tumor cells (1×10^5−2×10^6 depending on the cell lines) in 0.1 ml of PBS with or without metrigel for tumor development. Before commencement of treatment, all animals were weighed and the tumor volumes were measured using a caliper. […]
(§2) Tumor volumes were measured 2-3 times weekly in two dimensions using a caliper, and the volume was expressed in mm^3 using the formula: V=0.5 a×b2 where a and b are the long and short diameters of the tumor, respectively. Tumor weight was measured at study termination. […]
The anti-tumor activity of Compound A and Compound B was assessed firstly in an immune-checkpoint blocker resistant DLBCL syngeneic A20 xenograft mouse model as single agent and in combination. […] Body weights and tumor size were measured three times per week. […] The tolerability was assessed by body weight change. […]

[2] = tested on: regulatory T cells (Treg); assay: Analysis of regulatory T cells (Treg) and CD8+ T cells in tumor, spleen and thymus of the A20 model; assay type: in vivo, mouse
Procedure: Sampling procedures: organ and tumor tissues were quickly removed and weighted 3 h post the final dose for FACS, IHC (FFPE), and RNA/pretein expression analysis.
The anti-tumor activity of Compound A and Compound B was assessed firstly in an immune-checkpoint blocker resistant DLBCL syngeneic A20 xenograft mouse model as single agent and in combination. A20 cells were inoculated subcutaneously at the right flank of female BALB/c mice for tumor development. The treatment was started when the average tumor size reached about 116 mm^3. Mice were allocated randomly into experimental groups according to their tumor sizes and being treated from day 12 after tumor cell inoculation. Cpd A was dosed at 14 mg/kg and Cpd B at 200 μg/mouse intravenously with the schedule indicated in FIG. 1 A. Treatment groups were: control antibody (ctrl Ab), vehicle control (vehicle), compound A monotherapy (Cpd. A), Cpd. B monotherapy, 3 combination groups with different dosing schedules. Body weights and tumor size were measured three times per week. Tumor growth curve (FIG. 1B), tumor weight at the end of treatment (FIG. 1C) and tumor response (FIG. 1D) were used as anti-tumor activity endpoints. The tolerability was assessed by body weight change. […]

[3] = tested on: CT26 (KRAS^mut, non-MSI^high) colorectal cancer; assay: Anti-tumor efficacy in CT26 colorectal cancer syngeneic mouse model; assay type: in vivo; settings: monotherapy
Procedure: as §1, §2
Therefore, the anti-tumor activity of Compound A and Compound B was assessed in the mouse syngeneic CT26 (KRAS^mut, non-MSI^high) colorectal cancer xenograft model as single agent and in combination. […]

COc1c(OCCCN2CCOCC2)ccc2c1N=C(NC(=O)c1cnc(N)nc1)N1CCN=C21 [Cpd A, 2-amino-N-[7-methoxy-8-(3-morpholin-4-ylpropoxy)-2,3-dihydroimidazo[1,2-c]quinazolin-5-yl]pyrimidine-5-carboxamide dihydrochloride]
relative tumor growth inhibition (TGI %) [1]: 78%
effect on Treg in thymus and spleen ([2]; A20 model, thymus and spleen): minimal or no effects
effect on Treg population in tumors ([2]; A20 tumors, Treg among CD4+ T cells): specifically reduce the Treg population in tumors
TGI [3]: 71%
